From ChEMBL document CHEMBL1201862, “PubChem BioAssay data set” (2004)
Counter-ions that a name gives are not always drawn.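 All cell lines were grown in 96-well plates and treated with compound for 48 hours. GI50: concentration for 50% inhibition of growth.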 Calls of active or inactive are those of the source. Cut-off read from the data, not from the text of the source: active = GI50 up to about 1.1 µM and inactive = higher.

What was measured:
Experiment in all cases: inhibition of tumour cell growth, NCI panel, 48 h
SNB-75 = tested on: SNB-75
RXF 393 = tested on: RXF 393
COLO 205 = tested on: COLO 205
KM12 = tested on: KM12
MOLT-4 = tested on: MOLT-4
BT-549 = tested on: BT-549
PC-3 = tested on: PC-3
MDA-MB-435 = tested on: MDA-MB-435
LOX IMVI = tested on: LOX IMVI
Malme-3M = tested on: Malme-3M
SK-MEL-28 = tested on: SK-MEL-28
OVCAR-3 = tested on: OVCAR-3
NCI-H226 = tested on: NCI-H226
M14 = tested on: M14
ACHN = tested on: ACHN
Hs-578T = tested on: Hs-578T
SNB-19 = tested on: SNB-19
UO-31 = tested on: UO-31
HCT-116 = tested on: HCT-116
SF-268 = tested on: SF-268
SN12C = tested on: SN12C
MDA-MB-231 = tested on: MDA-MB-231
HOP-92 = tested on: HOP-92
U-251 = tested on: U-251
TK-10 = tested on: TK-10
SK-OV-3 = tested on: SK-OV-3
HT-29 = tested on: HT-29
K562 = tested on: K562
UACC-62 = tested on: UACC-62
MDA-N = tested on: MDA-N
SK-MEL-5 = tested on: SK-MEL-5
HL-60 = tested on: HL-60
SW-620 = tested on: SW-620
RPMI-8226 = tested on: RPMI-8226
OVCAR-5 = tested on: OVCAR-5
NCI-H522 = tested on: NCI-H522
MCF7 = tested on: MCF7
A498 = tested on: A498
HCC 2998 = tested on: HCC 2998
OVCAR-8 = tested on: OVCAR-8
SF-295 = tested on: SF-295
DU-145 = tested on: DU-145
SK-MEL-2 = tested on: SK-MEL-2
SF-539 = tested on: SF-539
786-0 = tested on: 786-0
IGROV-1 = tested on: IGROV-1
EKVX = tested on: EKVX
A549 = tested on: A549
NCI-H460 = tested on: NCI-H460
NCI/ADR-RES = tested on: NCI/ADR-RES
T47D = tested on: T47D
UACC-257 = tested on: UACC-257
NCI-H23 = tested on: NCI-H23
OVCAR-4 = tested on: OVCAR-4
HOP-62 = tested on: HOP-62
CAKI-1 = tested on: CAKI-1
HCT-15 = tested on: HCT-15
CCRF-CEM = tested on: CCRF-CEM

Measured: GI50

COc1cc(/C=C2\C[C@H]3[C@@H]4CC=C5C[C@@H](O)CC[C@]5(C)[C@H]4CC[C@]3(C)C2=O)cc(OC)c1OC
inactive: SNB-75 30.6 µM | RXF 393 19.6 µM | COLO 205 20.7 µM | KM12 27.2 µM | MOLT-4 16.3 µM | BT-549 33.4 µM | PC-3 28.1 µM | MDA-MB-435 29.8 µM | LOX IMVI 22 µM | Malme-3M 32.7 µM | SK-MEL-28 45.7 µM | OVCAR-3 26.2 µM | NCI-H226 31.4 µM | M14 24.4 µM | ACHN 30.5 µM | Hs-578T 40.6 µM | SNB-19 27.7 µM | UO-31 17.5 µM | HCT-116 20.1 µM | SF-268 51.5 µM | SN12C 26.1 µM | MDA-MB-231 26.4 µM | HOP-92 30.3 µM | U-251 32.1 µM | TK-10 37.2 µM | SK-OV-3 53.1 µM | HT-29 19.9 µM | K562 12.2 µM | UACC-62 37.1 µM | MDA-N 29.1 µM | SK-MEL-5 12.5 µM | SW-620 39.6 µM | RPMI-8226 6.98 µM | OVCAR-5 39.6 µM | NCI-H522 16.9 µM | MCF7 20.8 µM | A498 51.6 µM | HCC 2998 27.6 µM | OVCAR-8 34.6 µM | SF-295 19 µM | DU-145 39.1 µM | SK-MEL-2 28.8 µM | SF-539 49 µM | 786-0 26.6 µM | IGROV-1 64.1 µM | EKVX 33.5 µM | A549 13.2 µM | NCI-H460 27.4 µM | NCI/ADR-RES 27.5 µM | T47D 12.6 µM | UACC-257 29.2 µM | NCI-H23 35.3 µM | OVCAR-4 39.4 µM | HOP-62 26.4 µM | CAKI-1 36.9 µM
active: HL-60 0.366 µM
22.1 µM: HCT-15

COC1(OC)C[C@H](C)[C@@]23O[C@]24c2cc(O)c5c(c2N[C@H]3C#C/C=C\C#C[C@]14O)C(=O)c1ccccc1C5=O
0.005 µM: HCT-15
active: SNB-75 0.005 µM | RXF 393 0.005 µM | COLO 205 0.005 µM | BT-549 0.00519 µM | PC-3 0.005 µM | MDA-MB-435 0.00703 µM | LOX IMVI 0.005 µM | Malme-3M 0.005 µM | SK-MEL-28 0.00775 µM | OVCAR-3 0.0431 µM | NCI-H226 0.005 µM | M14 0.005 µM | Hs-578T 0.0705 µM | SNB-19 0.005 µM | UO-31 0.005 µM | HCT-116 0.005 µM | SF-268 0.005 µM | SN12C 0.00136 µM | MDA-MB-231 0.0142 µM | HOP-92 0.00107 µM | U-251 0.005 µM | TK-10 0.0245 µM | SK-OV-3 < 0.001 µM | HT-29 0.00655 µM | K562 0.005 µM | UACC-62 0.005 µM | MDA-N 0.00597 µM | SK-MEL-5 0.005 µM | SW-620 0.005 µM | RPMI-8226 0.005 µM | OVCAR-5 0.00692 µM | NCI-H522 0.00635 µM | MCF7 0.005 µM | A498 0.00119 µM | HCC 2998 0.00805 µM | OVCAR-8 0.005 µM | SF-295 0.005 µM | DU-145 0.005 µM | 786-0 0.005 µM | IGROV-1 0.0148 µM | EKVX 0.0286 µM | A549 0.005 µM | NCI-H460 < 0.001 µM | NCI/ADR-RES 0.005 µM | CCRF-CEM < 0.001 µM | T47D 0.005 µM | UACC-257 0.005 µM | NCI-H23 0.005 µM | OVCAR-4 0.0964 µM | HOP-62 0.005 µM | CAKI-1 0.005 µM

OC(CNc1ccccn1)c1ccccc1 (configuration not stated) [PHENYRAMIDOL HYDROCHLORIDE]
inactive: SNB-75 > 100 µM | RXF 393 > 100 µM | COLO 205 > 100 µM | KM12 > 100 µM | MOLT-4 > 100 µM | BT-549 > 100 µM | PC-3 > 100 µM | MDA-MB-435 > 100 µM | LOX IMVI > 100 µM | Malme-3M > 100 µM | SK-MEL-28 > 100 µM | OVCAR-3 > 100 µM | NCI-H226 > 100 µM | M14 > 100 µM | ACHN > 100 µM | Hs-578T > 100 µM | SNB-19 > 100 µM | UO-31 > 100 µM | HCT-116 > 100 µM | SF-268 > 100 µM | SN12C 63.1 µM | MDA-MB-231 > 100 µM | HOP-92 > 100 µM | U-251 67.6 µM | TK-10 > 100 µM | SK-OV-3 > 100 µM | HT-29 > 100 µM | K562 85.5 µM | UACC-62 > 100 µM | MDA-N > 100 µM | SK-MEL-5 > 100 µM | HL-60 > 100 µM | SW-620 > 100 µM | RPMI-8226 90.2 µM | OVCAR-5 > 100 µM | NCI-H522 > 100 µM | MCF7 > 100 µM | A498 > 100 µM | HCC 2998 > 100 µM | OVCAR-8 > 100 µM | SF-295 > 100 µM | DU-145 > 100 µM | SK-MEL-2 > 100 µM | SF-539 > 100 µM | 786-0 > 100 µM | IGROV-1 > 100 µM | EKVX > 100 µM | A549 > 100 µM | NCI-H460 > 100 µM | NCI/ADR-RES > 100 µM | CCRF-CEM > 100 µM | T47D > 100 µM | UACC-257 > 100 µM | NCI-H23 > 100 µM | OVCAR-4 > 100 µM | HOP-62 > 100 µM | CAKI-1 > 100 µM
> 100 µM: HCT-15
